Experimental data taken from BindingDB's records for patent US10562890 (University of Virginia Patent Foundation, 2020).

Biological target: T1, Core-binding factor subunit beta (Homo sapiens, UniProt Q13951)
T1 sequence (Q13951 whole entry): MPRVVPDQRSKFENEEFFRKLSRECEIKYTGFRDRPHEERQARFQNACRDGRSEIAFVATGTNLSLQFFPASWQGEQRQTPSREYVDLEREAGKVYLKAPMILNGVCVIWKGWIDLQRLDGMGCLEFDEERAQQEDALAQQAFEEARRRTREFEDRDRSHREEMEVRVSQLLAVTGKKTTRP
Assay: Fluorescence Resonance Energy Transfer (FRET) Assay
From the text: FRET assay can be used to effectively monitor the inhibition of CBF binding to the Runt domain of RUNX proteins (as well as for CBFβ-SMMHC binding to the Runt domain of RUNX proteins). For the assay, the green fluorescent protein derivative Cerulean is fused to the N-terminus of the Runt domain and the green fluorescent protein derivative Venus to the N-terminus of CBFβ.

| Compound | IC50 [nM] |
| --- | --- |
| FC(F)(F)Oc1ccc2[nH]c(-c3ccc(OCCN4CCN(Cc5ccccc5)CC4)cn3)nc2c1 [US10562890, Compound Al-14-95] | 2650 |
| COc1cc(OCCN2CCN(Cc3ccccc3)CC2)cnc1-c1nc2cc(OC(F)(F)F)ccc2[nH]1 [US10562890, Compound Al-14-100] | 2160 |
